Values of other authors as cited in article PMC6844301, “Antibacterial activity of a Tribolium castaneum defensin in an in vitro infection model of Streptococcus pneumoniae” (Virulence, 2019).

Test system: multi-resistant clinical isolate serotype 19A (AMR)
Details: strain description of the AMR isolate in methods; method or ref not given
Protocol: They were grown on sheep blood agar plates for 10 h and then transferred to Todd Hewitt Yeast (THY) medium (Carl Roth GmbH, Karlsruhe) at a density of 4 × 10^7 bacteria/ml (Ultraspec 10 Cell Densitometer, Amersham Biosciences). Upon reaching a density of 2 × 10^8 bacteria/ml, the bacterial suspension was diluted to 5 × 10^6 bacteria/ml. To esta ...

Compared with `CN(C)[C@@H]1C(O)=C(C(N)=O)C(=O)[C@@]2(O)C(O)=C3C(=O)c4c(O)cccc4[C@@](C)(O)[C@H]3C[C@@H]12` [Tetracycline], `CCC[C@@H]1C[C@@H](C(=O)N[C@@H]([C@H]2O[C@H](SC)[C@H](O)[C@@H](O)[C@H]2O)[C@H](C)Cl)N(C)C1` [Clindamycin] is 8-fold higher in “resistant against (antibiotic concentration)” value: 32 µg/mL for the first, 256 µg/mL for the second.

Going from `CO/N=C(\C(=O)N[C@@H]1C(=O)N2C(C(=O)O)=C(COC(C)=O)CS[C@H]12)c1csc(N)n1` [Cefotaxim] to Penicillin, the “resistant against (antibiotic concentration)” value rises from 4 µg/mL to 8 µg/mL (2-fold).
